Assay results published in US20250311727A1, “SUBSTITUTED 2-AMINOAZINES AND SALTS THEREOF, AND USE THEREOF AS HERBICIDAL ACTIVE SUBSTANCES” (BAYER AKTIENGESELLSCHAFT, priority 2022, published 2025).

Legend:
Type in all cases: in vivo
[1] = system: Amaranthus retroflexus; experiment: Post-emergence herbicidal efficacy at 80 g/ha, AMARE; conditions: rated visually after about 3 weeks vs untreated controls, 100% = plants have died
Outline: (§1)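 Greenhouse post-emergence spray, one-leaf stage (2–3 wk after sowing, sandy loam). Cpd as WP/EC, aqueous + 0.5% additive, 600 l/ha water. Visual rating ~3 wk post-treatment vs untreated; 0% = as control, 100% = plants dead.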

[2] = system: Echinochloa crus-galli; experiment: Post-emergence herbicidal efficacy at 80 g/ha, ECHCG; conditions: rated visually after about 3 weeks vs untreated controls, 100% = plants have died
From the text: (§2) Unwanted plants/weeds: • ABUTH: Abutilon theophrasti • ALOMY: Alopecurus myosuroides • AMARE: Amaranthus retroflexus • DIGSA: Digitaria sanguinalis • ECHCG: Echinochloa crus-galli • KCHSC: Kochia scoparia • LOLRI: Lolium rigidum • MATIN: Matricaria inodora • POAAN: Poa annua • POLCO: Polygonum convolvulus • SETVI: Setaria viridis • STEME: Stellaria media • VERPE: Veronica persica • VIOTR: Viola tricolor A. Post-Emergence Herbicidal Efficacy at 320 g/ha
(§3) Seeds of monocotyledonous and dicotyledonous weeds and crop plants were placed in sandy loam in plastic or organic planting pots, covered with soil and cultivated in a greenhouse under controlled growth conditions. 2 to 3 weeks after sowing, the test plants were treated at the one-leaf stage. The compounds of the invention, formulated in the form of wettable powders (WP) or as emulsion concentrates (EC), were then sprayed onto the green parts of the plants as aqueous suspension or emulsion with addition of 0.5% additive at a water application rate of 600 l/ha (converted). After the test plants had been kept in the greenhouse under optimum growth conditions for about 3 weeks, the activity of the preparations was rated visually in comparison to untreated controls. For example, 100% activity=the plants have died, 0% activity=like control plants.
(§4) Tables B1 to B11 below show the effects of selected compounds of the general formula (I) according to Table 1 on various harmful plants and an application rate corresponding to 80 g/ha, which were obtained by the experimental procedure mentioned above.

[3] = system: Veronica persica; experiment: Post-emergence herbicidal efficacy at 80 g/ha, VERPE; conditions: rated visually after about 3 weeks vs untreated controls, 100% = plants have died
Outline: as §1

[4] = system: Viola tricolor; experiment: Post-emergence herbicidal efficacy at 80 g/ha, VIOTR; conditions: rated visually after about 3 weeks vs untreated controls, 100% = plants have died
From the text: as §2, §3, §4

[5] = system: Abutilon theophrasti; experiment: Pre-emergence herbicide efficacy at 80 g/ha, ABUTH; conditions: scored visually after about 3 weeks vs untreated controls, 100% = plants have died
From the text: as §2
(§5) Seeds of monocotyledonous and dicotyledonous weed plants and crop plants were placed in plastic or organic planting pots and covered with soil. The compounds of the invention, formulated in the form of wettable powders (WP) or as emulsion concentrates (EC), were then applied to the surface of the covering soil as aqueous suspension or emulsion with addition of 0.5% additive at a water application rate equivalent to 600 l/ha. After the treatment, the pots were placed in a greenhouse and kept under good growth conditions for the test plants. After about 3 weeks, the efficacy of the preparations was scored visually in comparison with untreated controls as percentages. For example, 100% activity=the plants have died, 0% activity=like control plants.
(§6) Tables D1 to D12 below show the effects of selected compounds of the general formula (I) according to Table 1 on various harmful plants and an application rate corresponding to 80 g/ha, which were obtained by the experimental procedure mentioned above.

[6] = system: Amaranthus retroflexus; experiment: Pre-emergence herbicide efficacy at 80 g/ha, AMARE; conditions: scored visually after about 3 weeks vs untreated controls, 100% = plants have died
From the text: as §2, §5, §6

[7] = system: Digitaria sanguinalis; experiment: Pre-emergence herbicide efficacy at 80 g/ha, DIGSA; conditions: scored visually after about 3 weeks vs untreated controls, 100% = plants have died
From the text: as §2, §5, §6

[8] = system: Echinochloa crus-galli; experiment: Pre-emergence herbicide efficacy at 80 g/ha, ECHCG; conditions: scored visually after about 3 weeks vs untreated controls, 100% = plants have died
From the text: as §2, §5, §6

[9] = system: Kochia scoparia; experiment: Pre-emergence herbicide efficacy at 80 g/ha, KCHSC; conditions: scored visually after about 3 weeks vs untreated controls, 100% = plants have died
From the text: as §2, §5, §6

[10] = system: Matricaria inodora; experiment: Pre-emergence herbicide efficacy at 80 g/ha, MATIN; conditions: scored visually after about 3 weeks vs untreated controls, 100% = plants have died
From the text: as §2, §5, §6

[11] = system: Polygonum convolvulus; experiment: Pre-emergence herbicide efficacy at 80 g/ha, POLCO; conditions: scored visually after about 3 weeks vs untreated controls, 100% = plants have died
From the text: as §2, §5, §6

[12] = system: Veronica persica; experiment: Pre-emergence herbicide efficacy at 80 g/ha, VERPE
From the text: as §2, §5, §6

[13] = system: Viola tricolor; experiment: Pre-emergence herbicide efficacy at 80 g/ha, VIOTR
From the text: as §2, §5, §6

Cc1cnc(Nc2cccc(C#N)c2-n2cc(C(F)(F)F)cn2)nc1 [Example 1-39]
Post-emergence efficacy at 80 g/ha against AMARE in % [1]: 80% | Post-emergence efficacy at 80 g/ha against ECHCG in % [2]: 80% | Post-emergence efficacy at 80 g/ha against VERPE in % [3]: 90% | Post-emergence efficacy at 80 g/ha against VIOTR in % [4]: 80% | Pre-emergence efficacy at 80 g/ha against ABUTH in % [5]: 100% | Pre-emergence efficacy at 80 g/ha against AMARE in % [6]: 100% | Pre-emergence efficacy at 80 g/ha against DIGSA in % [7]: 100% | Pre-emergence efficacy at 80 g/ha against ECHCG in % [8]: 100% | Pre-emergence efficacy at 80 g/ha against KCHSC in % [9]: 90% | Pre-emergence efficacy at 80 g/ha against MATIN in % [10]: 100% | Pre-emergence efficacy at 80 g/ha against POLCO in % [11]: 90% | Pre-emergence efficacy against VERPE [12]: 90% | Pre-emergence efficacy against VIOTR [13]: 100%
